# Laboratory results from US20040086883A1, “Method and device for characterising and/or for detecting a bonding complex” (priority 2000, published 2004).
# {Cy3} = Cy3 fluorescent dye label
# B1: 5′ACTCTCTGCTGAAAGTCCCTTTGATAATCGTAACGAGGGGTTATACGCCGTAAAGCCGGAGA-Cy3 (nucleic acid)
# chain: ACTCTCTGCTGAAAGTCCCTTTGATAATCGTAACGAGGGGTTATACGCCGTAAAGCCGGAGA
# modifications: DNA, 3' {Cy3}, backbone not given here
# Key:
# [1] = biological target: T1, streptavidin (Streptomyces avidinii, UniProt P22629); test: Differential force test comparing biotin/streptavidin and iminobiotin/streptavidin complexes (pillar pressing); format: binding; conditions: for proportion of streptavidin transferred from the hapten on the substrate to the biotin-coated pillar: pH 10 buffer, 30 minutes contact, Alexa-Fluor-546 marked streptavidin
# T1 construct: purchased Molecular Probes, Eugene
# T1 sequence (P22629 25-183): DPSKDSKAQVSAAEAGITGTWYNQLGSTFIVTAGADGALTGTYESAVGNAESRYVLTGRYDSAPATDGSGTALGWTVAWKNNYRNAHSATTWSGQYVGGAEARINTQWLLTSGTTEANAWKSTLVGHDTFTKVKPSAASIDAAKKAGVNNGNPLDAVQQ
# Source text: Biotin and iminobiotin are bound to a substrate. Fluorescence-marked streptavidin is bound to the immobilized haptens. A plunger or pillar which is coated with biotin is moved towards the substrate in such a way that the biotin which is bound to the pillar can bind the streptavidin coupled by way of the haptens to the substrate. The pillar is then removed again. To conclude, the procedure involves determining which proportion of the streptavidin was transferred from the iminobiotin of the substrate onto the biotin of the pillar and which proportion of the streptavidin was transferred from the biotin of the substrate onto the biotin of the pillar.
# 20 μl of a solution with 2 mg/100 μl of NHS-PEG-biotin (Shearwater, Huntsville) was incubated under a cover glass for 1 hour on a pillar with an area of 1 cm^2. It was washed with very pure water and blown dry with nitrogen.
# A glass object carrier was cleaned by a 100-minute treatment with saturated KOH-ethanol solution. The cleaned surface was incubated with 3% aminosilane (3-aminopropyldimethyl-ethoxysilane; ABCR, Karlsruhe) in 10% H2O and 87% Ethanol for 30 minutes. The silanised surface was washed with very pure water and blown dry with nitrogen. […] The tBoc protective group was then split off with trifluoro-acetic acid. NHS-biotin and NHS-iminobiotin (Sigma, St. Louis) were respectively diluted starting from a 50 mM stock solution in DMSO to give a final concentration of 5 mM with PBS (phosphate buffered saline, Sigma). The attachment of biotin or iminobiotin respectively to the amino-functionalized glass substrate was effected from that solution. That was incubated for one hour in a saturated water atmosphere, washed with very pure water and blown dry with nitrogen.
# For the purposes of binding the streptavidin AlexaFluor ? -546 conjugate (Molecular Probes, Eugene), a solution was produced, involving a concentration of 0.1 mg/ml in a glycine/NaOH-buffer (pH 10). The substrate was incubated for 20 minutes with the solution, then washed for 5 minutes in that buffer and blown dry with nitrogen. […]
# [2] = biological target: avidin (Gallus gallus, UniProt P02701); conditions: AFM force spectrometer, Florin et al. Science 1994; cited from earlier work
# Chain of avidin (P02701 25-152, species assumed): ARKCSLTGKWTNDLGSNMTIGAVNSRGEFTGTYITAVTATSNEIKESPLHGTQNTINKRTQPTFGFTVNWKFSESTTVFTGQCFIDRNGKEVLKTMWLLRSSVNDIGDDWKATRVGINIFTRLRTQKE
# [3] = system: DNA-duplexes with oligo1 and oligo3; test: Differential force test comparing two DNA-duplexes (oligo2 with oligo1 versus oligo2 with oligo3); format: binding; conditions: for Q St = ΔCy3St/ΔCy5St: enrichment of Cy3-oligo2 relative to Cy5-oligo3; for Q Unt = ΔCy3Unt/ΔCy5Unt: depletion of Cy3-oligo2 relative to Cy5-oligo3
# [4] = biological target: T1, streptavidin; test: Force test with reverse pillar pressing, biotin/streptavidin versus desthiobiotin/streptavidin; format: binding
# Method: The polymerized structured and unstructured PDMS plates were cut to a size of 1 cm^2. Then the pieces were exposed to an H2O plasma in a plasma furnace at 2 mbar for 30 s. The oxidized surface was incubated with a solution of 2% aldehyde silane (4-triethoxysilylbutanal, Amchro, Hattersheim, Germany) in 10% H2O and 88% ethanol for 30 minutes. The silanised surface was washed with ethanol and very pure water and blown dry with nitrogen.
# The functionalized substrates and pillars were incubated overnight in PBS (phosphate buffered saline; Sigma, St. Louis, USA) with 2% BSA (bovine serum albumin; Roth, Karlsruhe, Germany). In that case BSA binds with its amino groups to the aldehyde groups of the surface. For stabilization purposes the resulting Schiff's bases were reduced with 1% sodium borohydride for 15 minutes. […]
# Depending on the respective pillar composition a fluorescence-marked streptavidin-AlexaFluor ? -647 conjugate (Molecular Probes, Eugene) was bound to the substrate or the pillar. […]
# The reverse implementation permits evaluation which is independent of the coupling efficiency. […] That assumption is permissible here by virtue of the very similar properties of the binding partners BP1 and BP4 to be compared (for example size) and can also be checked by measurement of fluorescence intensity prior to the pillar pressing procedure. […]
Molecule,proportion of streptavidin transferred from the hapten on the substrate to the biotin-coated pillar [1] [%],unbinding force of the receptor-ligand pair [2] [pN],Q St = ΔCy3St/ΔCy5St ([3]; pillar),Q Unt = ΔCy3Unt/ΔCy5Unt ([3]; substrate),further results
O=C(O)CCCC[C@@H]1SC[C@@H]2NC(=O)N[C@@H]21 [biotin],15,160,–,–,"relative strength of the streptavidin-hapten bond ([1]; biotin versus iminobiotin, assuming identical coupling efficiency and equal density): stronger"
5′TTGCTCCCAGACTCTCTGCTGAAAGTCCCTTTGATAATCGTAACGAGGGGTTATACGCCGTAAAGCCCGGAGA-Cy3 [oligo2a],–,–,1.20 ± 0.08,0.69±0.09,"unbinding force of the duplex with oligo3, higher than the duplex between oligo 2b and oligo3 ([3]; from QSt and QUnt): at least 500%; QSt = QA St/QB St ([3]; pillar, Experiment 2a relative to reference experiment 2b): 1.97; QA St corr. ([3]; pillar, corrected by factor 0.82): 0.98; QUnt = QA Unt/QB Unt ([3]; substrate, Experiment 2a relative to reference experiment 2b): 1.92; QA Unt corr. ([3]; substrate, corrected by factor 1.39): 0.96"
N=C1N[C@H]2[C@H](CS[C@H]2CCCCC(=O)O)N1 [iminobiotin],30,85±15,–,–,–
C[C@@H]1NC(=O)N[C@@H]1CCCCCC(=O)O [desthiobiotin],–,–,–,–,quotient of the transfer to desthiobiotin and the transfer to biotin ([4]; average of both tests): 0.18; binding force to streptavidin relative to biotin ([4]; reverse pillar pressing): weaker
B1,–,–,0.61 ± 0.08,0.36±0.08,–
